Source: paper PMC6689897, “Drugging an undruggable pocket on KRAS” (Proceedings of the National Academy of Sciences of the …, 2019)

Experiments:
GDP-KRASG12C::SOS1 = GDP-KRASG12C::SOS1 (Homo sapiens, UniProt P01116, C118S/C51S/C80L/G12C); assay: Alpha Screen PPI assay; type: biochemical; conditions: for IC50: Alpha Screen, duplicate
Description: (§1) 221 Measurements of various protein–protein interactions were performed using the Alpha
(§2) 222 Screen technology developed by Perkin Elmer. Recombinant RAS proteins (H-, N-, K-
(§3) 223 RAS variants; all KRAS variants are based on KRAS isoform 4B (uniprot id P01116-2);
(§4) 224 KRAS (G12D) 1-169, N-terminal 6His-tag, C-terminal avi-tag was from Xtal
(§5) 225 BioStructures, Inc., KRAS (G12C) 1-169, C-terminal avi-tag, biotinylated, mutations:
(§6) 226 C51S, C80L, C118S, NRAS(wt) 1-172, C-terminal avi-tag, biotinylated; HRAS(wt) 1-
(§7) 227 166, C-terminal avi-tag, biotinylated). Biotinylation was performed in vitro with
(§8) 228 recombinant BirA biotin-protein ligase as recommended by the manufacturer (Avidity
(§9) 229 LLC, Aurora, Colorado, USA). Interacting proteins such as SOS1 (564-1049, N-terminal
(§10) 230 GST-tag, TEV cleavage site), cRaf (1-303, N-terminal GST-tag, TEV cleavage site) and
(§11) 231 PI3KA- RBD (160-317, N-term-HIS_GST-tag) were expressed as glutathione S
(§12) 232 transferase (GST) fusions. Accordingly, the Alpha Screen beads were glutathione coated
(§13) 233 Alpha Lisa acceptor beads (Perkin Elmer AL 109 R) and Alpha Screen Streptavidin
(§14) 234 conjugated donor beads (Perkin Elmer 6760002L). Nucleotides were purchased from
(§15) 236 interaction assays were carried out in PBS, containing 0.1% bovine serum albumin,
(§16) 237 0,05% Tween-20 and 10 µM of the corresponding nucleotide. Assays were carried out in
(§17) 238 white ProxiPlate-384 Plus plates (Perkin Elmer #6008280) in a final volume of 20 µL. In
(§18) 239 brief, biotinylated RAS proteins (10 nM final concentration) and GST-SOS1, GST-PI3K
(§19) 240 or GST-CRAF (10 nM final) were mixed with glutathione acceptor beads (5 µg/mL final
(§20) 241 concentration) in buffer, containing the corresponding nucleotides (GDP or GTP for
(§21) 242 assays containing SOS1, only GTP for interaction assays containing PI3K or CRAF) and
(§22) 243 were incubated for 30 min at room temperature. After addition of streptavidin donor
(§23) 244 beads (5 µg/mL final concentration) under green light, the mixture was further incubated
(§24) 245 for 60 min in the dark at room temperature. Single oxygen induced fluorescence was
(§25) 246 measured at an Enspire multimode plate reader (Perkin Elmer) according to the
(§26) 247 manufacturer’s recommendations. […]

GDP-KRASG12D::SOS1 = biological target: T1, GDP-KRASG12D::SOS1 (Homo sapiens, UniProt P01116, G12D); assay: Alpha Screen PPI assay; type: biochemical; conditions: for IC50: Alpha Screen, duplicate
T1 construct: KRAS (G12D) 1-169, N-terminal 6His-tag, C-terminal avi-tag was from Xtal; 6His-tag (N); purchased Xtal BioStructures, Inc
Description: as §1, §2, §3, §4, §5, §6, §7, §8, §9, §10, §11, §12, §13, §14, §15, §16, §17, §18, §19, §20, §21, §22, §23, §24, §25, §26

GTP-KRASG12C::CRAF = GTP-KRASG12C::CRAF (Homo sapiens, UniProt P01116, C118S/C51S/C80L/G12C); assay: Alpha Screen PPI assay; type: biochemical; conditions: duplicate
Description: as §1, §2, §3, §4, §5, §6, §7, §8, §9, §10, §11, §12, §13, §14, §15, §16, §17, §18, §19, §20, §21, §22, §23, §24, §25, §26

GTP-KRASG12C::SOS1 = GTP-KRASG12C::SOS1 (Homo sapiens, UniProt P01116, C118S/C51S/C80L/G12C); assay: Alpha Screen PPI assay; type: biochemical; conditions: duplicate
Description: as §1, §2, §3, §4, §5, §6, §7, §8, §9, §10, §11, §12, §13, §14, §15, §16, §17, §18, §19, §20, §21, §22, §23, §24, §25, §26

NCI-H358 cells = assay: pERK quantification (Meso Scale Discovery); type: cell-based, human
Description: Active RAS signals through RAF and MEK to induce phosphorylation of ERK (phospho-ERK). Phospho-ERK levels were quantified using a plate-based electrochemiluminescent assay (MESO SCALE DISCOVERY). […]
252 (175 cm2) using RPMI medium supplemented with 10% fetal bovine serum. Cultures
253 were incubated at 37 °C and 5% CO2 in a humidified atmosphere, with medium change
254 or subcultivation 2-3 times a week. […]
257 atmosphere, with medium change or subcultivation 2-3 times a week. In case starvation
258 conditions were used in combination with EGF stimulation, cells were kept in medium
260 stimulation (50ng/mL) for 10 minutes. […]
308 The next day the compounds (30µL of serial dilutions) were added in triplicates. The
310 nano molar minimum. Compounds (Stock: 10mM in 100% DMSO) were diluted in
311 medium. Cells were incubated at 37°C and 5% CO2 in a humidified atmosphere for 14
312 days. […]
315 wavelength was 544/15 nm, emission 590 nm. Data were fitted by iterative calculation
316 using a sigmoidal curve analysis program based on GraphPAD Prism with variable hill
319 MAPK pathway signaling (pERK, pAKT quantification)
320 MSD 96-well multispot assays for Phospho/Total ERK1/2 and Phospho(Ser473)/Total
321 AKT whole cell lysate kits (Meso Scale Discovery, Gaithersburg, MD, #K15107D,
322 #K15100D) were used according to the manufacturer’s instructions. Briefly, 50.000
323 cells were seeded per well and grown in 96 well plates. Cells were washed in ice cold
324 PBS and lysed in 50µL ice-cold lysis buffer supplemented with the provided protease
325 inhibitors. MSD plates were blocked for 1h, washed and 40µL of lysate was added in
326 duplicates to wells and incubated at room temperature for 3 hours while shaking at
327 400rpm. To measure the amount of phosphorylated AKT or ERK, the specific primary
328 antibody was added for 1 hour. After washing, read buffer was added and the plates
329 were measured on a SECTOR 6000 instrument (Meso Scale Discovery). Samples were
330 normalized to total ERK or total AKT values, respectively.
332 RAS GTP detection (Ras G-LISA Activation assay):
333 Ras-GTP levels were analyzed using a Ras G-LISA assay kit (Cytoskeleton Inc.,
335 600.000 cells were seeded in 6 wells and grown to 70% confluence. Cells were washed
337 provided protease inhibitor cocktail. Lysates were quickly frozen in liquid nitrogen
338 and stored at -80°C until further usage. After normalizing protein concentration, 40µg
339 of protein was added in duplicates to wells of the Ras G-LISA plate coated with Ras
340 GTP-binding protein and incubated at 4°C for 30 minutes while shaking at 400rpm. […]
344 HRP detection reagent. Absorbance was measured by 490nm using an EnSpire
345 Multimode Reader (Perkin Elmer). Background was determined by a negative control […]

C=CC(=O)N1CCN(c2ncnc3c(F)c(-c4c(O)cccc4F)c(Cl)cc23)CC1 [ARS-1620, reference compound]
activity on the GDP-dependent KRAS^G12C::SOS1 interaction (GDP-KRASG12C::SOS1): displayed activity | IC50 (GDP-KRASG12C::SOS1): 590 nM | inhibition of GDP-dependent interaction with G12D instead of G12C (GDP-KRASG12D::SOS1): lost the ability to inhibit | IC50 (GDP-KRASG12D::SOS1): > 10000 nM | IC50 (GTP-KRASG12C::CRAF): > 10000 nM | IC50 (GTP-KRASG12C::SOS1): > 10000 nM | inhibition of pERK compared with 1 (NCI-H358 cells; high growth factor conditions, 2 h): similar, albeit more extended, inhibition of pERK

Cn1cnc(Cn2ccc3ccc(CNCc4[nH]c5ccccc5c4[C@H]4NC(=O)c5ccc(O)cc54)cc32)c1 [Compound 1]
IC50 (GDP-KRASG12C::SOS1): 450 nM | inhibition of GDP-dependent interaction with G12D instead of G12C (GDP-KRASG12D::SOS1): maintained the inhibitory function | IC50 (GDP-KRASG12D::SOS1): 260 nM | IC50 (GTP-KRASG12C::CRAF): 180 nM | IC50 (GTP-KRASG12C::SOS1): 360 nM | EC50 (NCI-H358 cells; Homo sapiens, NCI-H358, high growth factor conditions, 2 h, read-out: EC50 inhibition of pERK relative to total ERK): 5800 nM | pERK levels (NCI-H358 cells; starved 24 h low serum, 2 h compound, then EGF): dose-dependently reduced

CN(C)Cc1[nH]c2ccccc2c1[C@H]1NC(=O)c2ccc(O)cc21 [Compound 18]
decrease in phospho-ERK levels (NCI-H358 cells; at 50 µM, 2 h after treatment): almost complete inhibition
